In ChEMBL document CHEMBL3751755, “Developing steroidal aromatase inhibitors-an effective armament to win the battle against breast cancer” (Eur J Med Chem, 2015):

Legend:
Aromatase [1] = target: T1, Aromatase (Homo sapiens, UniProt P11511); assay: Inhibition of human aromatase extracted from placental microsomes using [1beta-3H]androstenedione as substrate after 15 mins by scintillation counting analysis
T1 sequence (P11511 whole entry): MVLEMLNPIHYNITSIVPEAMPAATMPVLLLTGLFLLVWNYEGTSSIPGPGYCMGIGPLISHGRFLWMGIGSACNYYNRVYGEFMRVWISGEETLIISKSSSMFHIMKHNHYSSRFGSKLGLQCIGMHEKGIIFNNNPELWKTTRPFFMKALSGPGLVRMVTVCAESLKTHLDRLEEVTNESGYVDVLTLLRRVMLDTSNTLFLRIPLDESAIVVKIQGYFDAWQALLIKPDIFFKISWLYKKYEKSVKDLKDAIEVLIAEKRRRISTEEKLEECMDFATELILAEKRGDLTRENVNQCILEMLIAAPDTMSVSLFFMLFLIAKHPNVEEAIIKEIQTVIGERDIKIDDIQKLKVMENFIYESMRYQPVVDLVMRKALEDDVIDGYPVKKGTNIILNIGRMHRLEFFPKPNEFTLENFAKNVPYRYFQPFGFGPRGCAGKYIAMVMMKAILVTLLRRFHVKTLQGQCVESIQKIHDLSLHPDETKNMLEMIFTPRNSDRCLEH

Aromatase [2] = target: T1, Aromatase; assay: Competitive inhibition of human aromatase extracted from placental microsomes by Dixon plot analysis in presence of [1,2-3H]androstenedione
Aromatase [3] = target: T1, Aromatase; assay: Time dependent inhibition of human aromatase extracted from placental microsomes using [1beta,2beta-3H]-testosterone as substrate after 10 mins by scintillation counting analysis
Aromatase [4] = target: T1, Aromatase; assay: Inhibition of human aromatase extracted from placental microsomes
Aromatase [5] = target: T1, Aromatase; assay: Inhibition of human aromatase extracted from placental microsomes using [1beta,2beta-3H]testosterone as substrate measured at 7 to 21 mins by scintillation counting analysis
Aromatase [6] = target: T1, Aromatase
Aromatase [7] = target: T1, Aromatase; assay: Inhibition of human aromatase extracted from placental microsomes using [1beta,2beta-3H]androstenedione as substrate
Aromatase [8] = target: T2, Aromatase (Rattus norvegicus, UniProt P22443); assay: Inhibition of aromatase in denucleated ovarian fraction extracted from PMSG pretreated Wistar rat by using testosterone as substrate after 15 mins by radio immuno assay
T2 sequence (P22443 whole entry): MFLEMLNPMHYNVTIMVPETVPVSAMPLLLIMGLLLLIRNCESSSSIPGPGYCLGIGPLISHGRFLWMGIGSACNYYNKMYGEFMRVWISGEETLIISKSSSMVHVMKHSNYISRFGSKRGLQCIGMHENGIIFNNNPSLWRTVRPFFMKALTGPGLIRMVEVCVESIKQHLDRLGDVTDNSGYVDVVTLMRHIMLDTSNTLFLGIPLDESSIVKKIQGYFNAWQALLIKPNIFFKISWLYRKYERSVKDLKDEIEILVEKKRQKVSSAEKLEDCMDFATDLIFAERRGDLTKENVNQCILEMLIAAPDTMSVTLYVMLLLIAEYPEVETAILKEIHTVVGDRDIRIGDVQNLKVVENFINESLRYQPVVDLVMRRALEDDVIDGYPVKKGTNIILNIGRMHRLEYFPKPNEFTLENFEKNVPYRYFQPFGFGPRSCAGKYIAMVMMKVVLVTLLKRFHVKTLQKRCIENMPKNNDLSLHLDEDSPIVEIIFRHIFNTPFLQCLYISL

Aromatase [9] = target: T1, Aromatase; assay: Time dependent inhibition of human aromatase extracted from placental microsomes using [1beta,2beta-3H]androstenedione as substrate by scintillation counting analysis
Aromatase [10] = target: T1, Aromatase; assay: Inhibition of human aromatase extracted from placental microsomes using [1-3H]androstenedione as substrate at […]
Aromatase [11] = target: T2, Aromatase; assay: Inhibition of aromatase in denucleated ovarian fraction extracted from PMSG pretreated Wistar rat using testosterone as substrate at 50 uM by radioimmuno assay
Aromatase [12] = target: T2, Aromatase; assay: Inhibition of aromatase in denucleated ovarian fraction extracted from PMSG pretreated Wistar rat by using testosterone as substrate at 1 uM
Aromatase [13] = target: T1, Aromatase; assay: Irreversible inhibition of human aromatase extracted from placental microsomes; details: read-out: Ki(app)
[14] = Antitumor activity against NMU-induced mammary tumor in rat; assay type: functional
Aromatase [15] = target: T1, Aromatase; assay: Inhibition of human aromatase extracted from placental microsomes using [1beta-3H]androstenedione as substrate after 20 mins by radiometric assay
Aromatase [16] = target: T2, Aromatase; assay: Competitive inhibition of aromatase in ovarian fraction extracted from PMSG pretreated Wistar rat by double reciprocal plot analysis in presence of testosterone
Aromatase [17] = target: T1, Aromatase; assay: Inhibition of aromatase (unknown origin); design: inhibition (INH): concentration or dose not given beside the values; details: human
Aromatase [18] = target: T2, Aromatase; assay: Inhibition of rat aromatase extracted from ovarian fraction using testosterone as substrate
Aromatase [19] = target: T1, Aromatase; assay: Inhibition of human aromatase extracted from placental microsomes using [1-3H]androstenedione as substrate
Aromatase [20] = target: T1, Aromatase; assay: Time dependent inactivation of human aromatase extracted from placental microsomes using [1,2-3H]androst-4-ene-3,17-dione
HeLa = assay: Cytotoxicity against human HeLa cells after 48 hrs by MTT assay; assay type: functional, cell-based
[21] = Cytotoxicity against human PC3 cells after 48 hrs by MTT assay; assay type: functional, cell-based; details: PC-3, 48 h
Aromatase [22] = target: T1, Aromatase; assay: Inhibition of aromatase (unknown origin) at 50 uM
Aromatase [23] = target: T1, Aromatase; assay: Inhibition of human aromatase extracted from placental microsomes using [1,2-3H]androstenedione as substrate after 20 mins by scintillation counting analysis
Aromatase [24] = target: T1, Aromatase; assay: Competitive inhibition of human placental aromatase in presence of testosterone
Aromatase [25] = target: T1, Aromatase; assay: Inhibition of human aromatase extracted from placental microsomes assessed as 3H2O formation from [1b,2b-3H] testosterone preincubated for 5 mins followed by protein addition measured at 7 to 21 mins by liquid scintillation counting analysis
Aromatase [26] = target: T1, Aromatase; assay: Irreversible inhibition of human aromatase extracted from placental microsomes by double reciprocal plot analysis in presence of [1beta,2beta-3H]androstenedione
Aromatase [27] = target: T1, Aromatase; assay: Inhibition of aromatase (unknown origin) at 5 uM relative to control
Aromatase [28] = target: T2, Aromatase; assay: Inhibition of aromatase in denucleated ovarian fraction extracted from PMSG pretreated Wistar rat using testosterone as substrate at 10 uM by radioimmuno assay
Aromatase [29] = target: T1, Aromatase; assay: Inhibition of human aromatase extracted from placental microsomes using [1beta-3H]androstenedione as substrate after 20 mins by scintillation counting analysis
Aromatase [30] = target: T1, Aromatase; assay: Inhibition of human aromatase extracted from placental microsomes at 520 nM after 10 mins

C[C@]12CC[C@H](O)C(N=[N+]=[N-])=C1CC[C@@H]1[C@@H]2CC[C@]2(C)/C(=N/O)CC[C@@H]12
INH (Aromatase [1]): 32.8%

C[C@]12CC[C@H]3[C@@H](CCC4=CCCC[C@@]43CO)[C@@H]1CCC2=O
Ki (Aromatase [2]): 0.0125 µM

CS[C@]12C=CC(=O)C=C1CC[C@H]1[C@@H]3CC[C@H](O)[C@@]3(C)CC[C@@H]12
Ki (Aromatase [3]): 0.61 µM

C[C@]12CC[C@H]3[C@@H](Cc4nn(Cc5ccccc5)c5c4[C@]3(C)CCC5=O)[C@@H]1CC[C@@H]2O
IC50 (Aromatase [4]): 0.245 µM

CC(=O)O[C@H]1CC[C@@]2(C)C(=C/C(=N\OCCCn3ccnc3)[C@H]3[C@@H]4CC[C@H](OC(C)=O)[C@@]4(C)CC[C@@H]32)C1
IC50 (Aromatase [5]): 12 µM

C[C@]12C=CC(=O)C=C1C=C(CCc1ccccc1)[C@@H]1[C@@H]2CC[C@]2(C)C(=O)CC[C@@H]12
Ki (Aromatase [6]): 0.172 µM

CSCC[C@]12CCC(=O)C=C1CC[C@@H]1C2=CC[C@]2(C)C(=O)CC[C@@H]12
IC50 (Aromatase [7]): 0.012 µM

C[C@]12CC=C3[C@@H](CCC4=CC(=O)CC[C@@]43CCSCF)[C@@H]1CCC2=O
IC50 (Aromatase [7]): 0.05 µM

C[C@@H]1OC(=O)C[C@H]2[C@@H]3C=C[C@H]4C[C@@H](O)CC[C@]4(C)[C@H]3CC[C@]12C
IC50 (Aromatase [8]): 0.25 µM

C[C@]12CC[C@H]3[C@@H](CCC4=CC(=O)CC[C@@]43CS)[C@@H]1CCC2=O
Ki (Aromatase [9]): 0.034 µM

C[C@]12CC[C@H]3[C@@H](/C(=N/OCCCn4ccnc4)C=C4C[C@@H](O)CC[C@@]43C)[C@@H]1CC[C@@H]2O
IC50 (Aromatase [5]): 3.1 µM

C[C@]12CCC(=O)C=C1C[C@@H](Sc1ccc(Br)cc1)[C@@H]1[C@@H]2CC[C@]2(C)C(=O)CC[C@@H]12
inhibition at […] (Aromatase [10]): 45%

C[C@]12CC[C@@H]3c4ccc(OCc5ccccc5)cc4CC[C@H]3[C@@H]1CC(=O)OC2
inhibition at 50 µM (Aromatase [11]): 26.7%

C[C@]12CCC(=O)C(O)=C1CC[C@@H]1[C@@H]2CC[C@]2(C)C(=O)CC[C@@H]12 [FORMESTANE]
inhibition at 1 µM (Aromatase [12]): 99.2%
Ki (Aromatase [13]): 0.043 µM
Activity [14]: 67%
IC50 (Aromatase [15]): 1.2 µM

C[C@]12C=CC(=O)C=C1C=C(c1ccccc1)[C@@H]1[C@@H]2CC[C@]2(C)C(=O)CC[C@@H]12
Ki (Aromatase [6]): 2.22 µM

C[C@@H]1OC(=O)C[C@H]2[C@@H]3CCC4=CC(=O)CC[C@]4(C)[C@H]3CC[C@]12C
IC50 (Aromatase [8]): 0.28 µM

C[C@]12CCC(=O)C=C1C[C@@H](Sc1ccc(Cl)cc1)[C@@H]1[C@@H]2CC[C@]2(C)C(=O)CC[C@@H]12
inhibition at […] (Aromatase [10]): 45%

CC(=O)[C@@]1(C)CC[C@H]2[C@@H](CCC3=CC(=O)CC[C@@]32C)C1CC#N (stereo not given in full)
Ki (Aromatase [16]): 0.27 µM
inhibition (INH) (Aromatase [17]): 46.5%

C[C@]12CC[C@H]3[C@@H](Cc4n[nH]c5c4[C@]3(C)CCC5=O)[C@@H]1CC[C@@H]2O
IC50 (Aromatase [4]): 0.236 µM

C[C@]12CCC(=O)C=C1CC[C@@H]1[C@@H]2CC[C@@]2(C)[C@H]1CC[C@@]2(O)Cc1ccccn1
inhibition (INH) (Aromatase [18]): 51.5%

C=C1C=C2CC[C@@H]3[C@H](CC[C@]4(C)C(=O)CC[C@@H]34)[C@@]2(CO)CC1
inhibition (INH) (Aromatase [19]): 80%

C=C1C=C2CC[C@@H]3[C@H](CC[C@]4(C)C(=O)CC[C@@H]34)[C@@]2(C=O)CC1
inhibition (INH) (Aromatase [19]): 50%

C[C@]12CC[C@H]3[C@@H](CCC4=CC(=O)CC[C@@]43C(F)F)[C@@H]1CCC2=O
Ki (Aromatase [20]): 1 µM

C=C1C[C@@H]2[C@H]([C@H](O)C[C@]3(C)C(=O)CC[C@@H]23)[C@@]2(C)C=CC(=O)C=C12
IC50 (HeLa): 16.8 µM
IC50 [21]: 24.9 µM

C[C@]12CCC(=O)C=C1C(=O)C[C@@H]1[C@@H]2CC[C@]2(C)/C(=C/c3ccccn3)CC[C@@H]12
inhibition at 50 µM (Aromatase [22]): 108%

C[C@]12CCC(=O)C=C1[C@@H](OC(=O)CBr)C[C@@H]1[C@@H]2CC[C@]2(C)C(=O)CC[C@@H]12
IC50 (Aromatase [23]): 2.8 µM

C[C@]12CCC(=O)C3=C1C(=Nc1ccccc1S3)C[C@@H]1[C@@H]2CC[C@]2(C)C(=O)CC[C@@H]12
IC50 (Aromatase [24]): 42.3 µM

COc1cc(/C=C2\C[C@H]3[C@@H]4CCC5=CC(=O)CC[C@]5(C)[C@H]4CC[C@]3(C)C2=O)ccc1OCCCn1ccnc1
IC50 (Aromatase [25]): 4.4 µM

C[C@]12CC[C@H]3[C@@H](CCC4=CC(=O)CC[C@@]43S)[C@@H]1CC[C@@H]2O
Ki (Aromatase [26]): 0.106 µM

CC(=O)O[C@H]1CC[C@@]2(C)C(=CC[C@H]3C(CC#N)[C@@](C)(CBr)CC[C@@H]32)C1 (stereo not given in full)
inhibition at 5 µM (Aromatase [27]): 19.4%

C[C@]12C=CC(=O)C=C1C=C[C@@H]1[C@@H]2CC[C@@]2(C)[C@H]1CC[C@@]2(O)Cc1ccccn1
inhibition (INH) (Aromatase [18]): 51.5%

C[C@]12CC[C@@H]3c4ccc(O)cc4CC[C@H]3[C@@H]1CC(=O)OC2
inhibition at 10 µM (Aromatase [28]): 1.5%

C[C@]12C=CC(=O)C=C1CC[C@@H]1[C@@H]2CC[C@]2(C)C(=O)/C(=C/c3ccc4c(c3)OCO4)C[C@@H]12
IC50 (Aromatase [29]): 6.4 µM

C[C@]12CCC(=O)C=C1[C@@H](Br)C[C@@H]1[C@@H]2CC[C@]2(C)C(=O)CC[C@@H]12
inhibition at […] (Aromatase [30]): 45%

C[C@]12CCC(=O)C(O)=C1C=C[C@@H]1[C@@H]2CC[C@]2(C)/C(=C/c3ccccn3)CC[C@@H]12
inhibition at 50 µM (Aromatase [22]): 92%
